Consider one substance from patent publication US20070122830A1, “Prohibitin-directed diagnostics and therapeutics for cancer and chemotherapeutic drug resistance” (Aurelium BioPharma Inc., priority 2005, published 2007).

The series concerns MCF-7/ADR xenografts. Put plainly: Mammary adenocarcinoma xenografts in nude mice, prohibitin siRNA plus chemotherapy. The format is in vivo. As for the experimental part: (§1) In further studies, the efficacy of a prohibitin-targeted therapeutic in treating mammary adenocarcinoma cells (MCF-7/AR) is assessed. Briefly, male […] nude mice 5 to 7 weeks old, weighing 18 g to 22 g, are used for the MCF-7/ADR xenografts. Mice receive a subcutaneous (s.c.) injection of the cells using 5×10^5 cells/inoculation under the shoulder. […] The animal's weight is measured every 4 days. Tumor growth starting on the first day of treatment is measured and the volume of the xenograft is monitored every 4 days. The mice are anaesthetized and sacrificed when the mean tumor weight is over 1 g in the control group. Tumor tissue is excised from the mice and its weight is measured. Tumor weights from mice treated with the prohibitin siRNA and chemotherapeutic drugs are compared to tumor weights from mice treated with control siRNA and chemotherapeutic drugs. Cell counts are compared. All experiments are performed in triplicate.
as §1, with “treating a” for “treating”, “(MCF-7)” for “(MCF-7/AR)”, “an s.c.” for “a subcutaneous (s.c.)”, “drugs.” for “drugs. Cell counts are compared. All experiments are performed in triplicate.”
In further studies, the efficacy of a prohibitin-targeted therapeutic in treating a mammary adenocarcinoma cells (MCF-7) is assessed. Briefly, male […] nude mice 5 to 7 weeks old, weighing 18 g to 22 g, are used for the MCF-7/ADR xenografts. Mice receive an s.c. injection of the cells using […] cells/inoculation under the shoulder.
Liposome formulations are produced as described previously (Shi et al. (2000) Proc. Natl. Acad. Sci. USA. 97(13): 7567-7572). Briefly, POPC ([…]), DDAB (0.2 μmol), DSPE-PEG 2000 (0.6 μmol), and DSPE-PEG 2000-maleimide (30 nmol) are dissolved in chloroform/methanol (2:1, vol:vol) […] a brief period of evaporation. The lipids are dispersed in 1 ml 0.05 M Tris-HCl buffer, pH 8.0, and are sonicated for 10 min. Prohibitin siRNA is added to the lipids. The liposome/siRNA dispersion is evaporated to a final concentration of 200 mM at a volume of 100 μl. The dispersion is frozen in ethanol/dry ice for 4 to 5 min. The dispersion is then thawed at 40° C. for 1 min. to 2 min., and this freeze-thaw cycle is repeated 10 times. The liposome dispersion is diluted to a lipid concentration of 40 mM, is followed by extrusion 10 times each through two stacks each of 400 nm, 200 nm, 100 nm, and 50 nm pore size polycarbonate membranes, by using a hand held extruder (Avestin, Ottawa). The mean vesicle diameters are determined by quasielastic light scattering using a Microtrac Ultrafine Particle Analyzer (Leeds-Northrup, St. Petersburg, Fla.).
The animal's weight is measured every 4 days. Tumor growth starting on the first day of treatment is measured and the volume of the xenograft is monitored every 4 days. The mice are anaesthetized and sacrificed when the mean tumor weight is over 1 g in the control group. Tumor tissue is excised from the mice and its weight is measured. Tumor weights from mice treated with the prohibitin siRNA and chemotherapeutic drugs are compared to tumor weights from mice treated with control siRNA and chemotherapeutic drugs.
In further studies, the efficacy of a prohibitin-targeted therapeutic in treating a mammary adenocarcinoma cells (MCF-7) is assessed. […]

Setting [1] is: Example 10, siRNA/liposome formulation.
Where [2] appears, read: Example 11, siRNA/immunoliposome formulation.

With “prohibitin siRNA: siRNA duplex to human prohibitin mRNA nt 425-443; sense 5′-GGAAGUGGUCUGUCUGUUAtt-3′, antisense 5′-UAACAGACAGACCACUUCCtt-3′ (sense GGAAGUGGUCUGUCUGUUATT; antisense UAACAGACAGACCACUUCCTT; chemistry not given here)”, the “total cell numbers of tumors vs control siRNA” value (Example 8, MCF-7/AR cells) is “lower”. The “tumor weight vs control siRNA” value is “smaller tumors by weight” (Example 8, MCF-7/AR cells); “smaller tumors by weight” (Example 9, MCF-7); “smaller tumors by weight” under setting [1]; “smaller tumors by weight” under setting [2]. For the same substance, the “total cell number in tumors vs control siRNA” value by setting is: (Example 9, MCF-7) “lower”; under setting [1], “lower”; under setting [2], “lower”.
